The text below walks through data of patent publication US12390437B2, “Itaconic acid derivatives and uses thereof intreating an inflammatory disease or a disease associated with an undesirable immune response” (Sitryx Therapeutics Limited, priority 2019, dated 2025).

Molecules are shown by their SMILES. Where two headings read alike, the source gives them in different places. Some results are limits rather than exact numbers.

One series relates to NRF2. In words: NRF2 +/-GSH activation assay (DiscoverX PathHunter NRF2 translocation kit, U2OS cells). In kind it is cell-based. The conditions noted are these: Homo sapiens; for Emax: read-out: NRF2 activation Emax; for EC50: read-out: NRF2 activation EC50. The protocol:
Measuring Compound Activation Effects on the Anti-Inflammatory Transcription Factor NRF2 in DiscoverX PathHunter NRF2 Translocation Kit
Potency and efficacy of compounds of formula (IW-1) against the target of interest to activate NRF2 (nuclear factor erythroid 2-related factor 2) were determined using the PathHunter NRF2 translocation kit (DiscoverX). The NRF2 translocation assay was run using an engineered recombinant cell line, utilising enzyme fragment complementation to determine activation of the Keap1-NRF2 protein complex and subsequent translocation of NRF2 into the nucleus. Enzyme activity was quantified using a chemiluminescent substrate consumed following the formation of a functional enzyme upon PK-tagged NRF2 translocation into the nucleus.
The assay was run under either +/−GSH (glutathione) conditions to determine the attenuating activities of GSH against target compounds.
Additionally, a defined concentration of dimethyl fumarate was used as the ‘High’ control to normalise test compound activation responses to.
U2OS PathHunter eXpress cells were thawed from frozen prior to plating. Following plating, U2OS cells were incubated for 24 hrs (37° C./5% CO2) in commercial kit provided cell medium.
Following 24 hrs of U2OS incubation, cells were directly treated with an appropriate final concentration of compound, for −GSH conditions, or for +GSH conditions, an intermediate plate containing 6× working concentrations of compound stocks was prepared in a 6 mM working concentration of GSH solution (solubilised in sterile PBS). Following a 30 minute compound-GSH pre-incubation (37° C./5% CO2) for +GSH treatment, plated U2OS cells were incubated with an appropriate final concentration of compound and GSH.
Following compound (+/−GSH) treatment, the U2OS plates were incubated for a further 6 hours (37° C./5% CO2) before detection reagent from the PathHunter NRF2 commercial kit was prepared and added to test plates according to the manufacturer's instructions. Subsequently, the luminescence signal detection in a microplate reader was measured (PHERAstar®, BMG Labtech).
Percentage activation was calculated by normalising the sample data to the high and low controls used within each plate (+/−DMF). Percentage activation/response was then plotted against compound concentration and the 50% activation concentration (EC50) was determined from the plotted concentration-response curve.

The subject of series [1] is IL-1β cytokine output from THP-1s. In words: THP-1 AlphaLISA IL-1β cytokine assay. The format is cell-based, human. To be noted: Homo sapiens, LPS 24 hr then Nigericin 1 hour, read-out: IL-1β (IC50). The protocol: Measuring Inhibitory Effects on IL-1β and IL-6 Cytokine Output from THP-1s
The cytokine inhibition profiles of compounds of formula (IW-1) were determined in a differentiated THP-1 cell assay. All assays were performed in RPMI-1640 growth medium (Gibco), supplemented with 10% fetal bovine serum (FBS; Gibco), 1% penicillin-streptomycin and 1% sodium pyruvate unless specified otherwise. The IL-1β and IL-6 cytokine inhibition assays were each run in a background of differentiated THP-1 cells as described below. All reagents described were from Sigma-Aldrich unless specified otherwise. Compounds were prepared as 10 mM DMSO stocks.
THP-1 cells were expanded as a suspension up to 80% confluence in appropriate growth medium. Cells were harvested, suspended, and treated with an appropriate concentration of phorbol 12-myristate 13-acetate (PMA) over a 72 hr period (37° C./5% CO2).
Following 72 hrs of THP-1 cell incubation, cellular medium was removed and replaced with fresh growth media containing 1% of FBS. Working concentrations of compounds were prepared separately in 10% FBS treated growth medium and pre-incubated with the cells for 30 minutes (37° C./5% CO2). Following the 30 minute compound pre-incubation, THP-1s were treated with an appropriate concentration of LPS and the THP-1s were subsequently incubated for a 24 hr period (37° C./5% CO2). An appropriate final concentration of Nigericin was then dispensed into the THP-1 plates and incubated for 1 hour (37° C./5% CO2) before THP-1 supernatants were harvested and collected in separate polypropylene 96-well holding plates.
Reagents from each of the IL-1β and IL-6 commercial kits (Perkin Elmer) were prepared and run according to the manufacturer's instructions. Subsequently, fluorescence signal detection in a microplate reader was measured (EnVision® Multilabel Reader, Perkin Elmer).
Percentage inhibition was calculated per cytokine by normalising the sample data to the high and low controls used within each plate (+/−LPS respectively). Percentage inhibition was then plotted against compound concentration and the 50% inhibitory concentration (IC50) was determined from the resultant concentration-response curve.
In general terms: In Alpha technology, singlet oxygen from a donor bead excites a nearby acceptor bead.

Series [2] in a line: Mouse pharmacokinetic study, oral administration. The conditions noted are these: male, C57BL/6, mouse, plasma, po, 100 mg/kg, plasma, male C57BL/6 mice, oral gavage 100 mg/kg. In kind it is in vivo. As to the method: (§1) Pharmacokinetic studies were carried out in 6-8-week-old male C57BL/6 mice having free access to food and water. Intravenous dosing was conducted at 10 mg/kg (5 mL/kg; vehicle: 10% DMSO-90% (25% HP-13-CD in water)) via tail vein injection, with sampling at 3 min, 8 min, 15 min, 30 min, 1, 2, 4, 6 and 8 hours, i.e., 9 time points in total (N=3/time point), using semi-serial bleeding for plasma. Oral compound administration, via gavage, was carried out at 100 mg/kg (10 mL/kg; vehicle: 5% DMSO-95% (0.5% HPMC+0.1% Tween 80 in water)), with sampling at 5 min, 15 min, 30 min, 1, 2, 4, 6, 8 and 24 hours, i.e., 9 time points in total (N=3/time point), using semi-serial bleeding for plasma.
(§2) For both intravenous and oral routes, the mice were restrained manually at the designated time points, with ca. 110 μL of blood being taken into K2EDTA tubes via the facial vein. Blood samples were put on ice and centrifuged to obtain plasma samples from which the concentration at each time point was measured by LC-MS/MS.

The nature of series [3]: Mouse pharmacokinetic study, intravenous dosing. In kind it is in vivo. To be noted: male, C57BL/6, mouse, iv, plasma, 10 mg/kg i.v., read-out: Parent compound concentration following intravenous administration. The protocol:
as §1, §2

Where [4] appears, read: U2OS, normalised to dimethyl fumarate 'High' control, GSH condition not stated in Table 5.
[5] abbreviates: U2OS PathHunter cells, 6 hours, GSH condition not stated in Table 5.
The mark [6] stands for this setting: THP-1, PMA-differentiated THP-1 cells.

`C=C(CC(=O)OC1CCCCC1)C(=O)OC1CCN(S(C)(=O)=O)CC1` [Example 75, 4-cyclohexyl 1-(1-(methylsulfonyl)piperidin-4-yl) 2-methylenesuccinate]: the Emax (in general, the maximal effect, on the per cent scale that the assay sets) with NRF2 (setting [4]) was determined as 143%. For the same compound, the EC50 (usually the concentration that produces a half-maximal response) in the series on NRF2 (setting [5]) amounted to 17.5 µM. Moreover, the IC50 (in general, the midpoint of a concentration-inhibition curve) in series [1] (setting [6]) amounted to 11.2 µM.

Consider `C=C(CC(=O)OCCCCCC)C(=O)OCCc1nnn[nH]1` [Example 78, 1-(2-(1H-tetrazol-5-yl)ethyl) 4-hexyl 2-methylenesuccinate], for which the Emax in the series with NRF2 (setting [4]) turned out to be 177%. Besides, in the series on NRF2 (setting [5]), the EC50 came out at 17.7 µM. The IC50 in series [1] (setting [6]) was determined as 4.2 µM.

For the compound `C=C(CC(=O)OCCCOc1ccccc1)C(=O)OCC(=O)O` [Example 95, 2-((2-methylene-4-oxo-4-(3-phenoxypropoxy)butanoyl)oxy)acetic acid], the maximal effect (Emax) in the series on NRF2 (setting [4]) amounted to 122%. Moreover, the EC50 with NRF2 (setting [5]) was determined as 36.5 µM. The IC50 in series [1] (setting [6]) was found to be 80.6 µM.

On to `C=C(CC(=O)OC1CCCCCCC1)C(=O)OC(C(=O)O)C(F)(F)F` (stereo not shown) [Example 122, 2-((4-(cyclooctyloxy)-2-methylene-4-oxobutanoyl)oxy)-3,3,3-trifluoropropanoic acid], for which the Emax in the series with NRF2 (setting [4]) worked out at 178%. The EC50 in the series with NRF2 (setting [5]) was found to be 17.5 µM. Further, in series [1] (setting [6]), the IC50 was 13 µM.

Regarding `C=C(CC(=O)OC1CCCCC1)C(=O)OCCc1nnn[nH]1` [Example 128, 1-(2-(1H-tetrazol-5-yl)ethyl) 4-cyclohexyl 2-methylenesuccinate], the Emax in the series on NRF2 (setting [4]) was found to be 104%. Further, the EC50 in the series on NRF2 (setting [5]) was 38 µM. For the same compound, the IC50 in series [1] (setting [6]) came out at 32.7 µM.

`C=C(CC(=O)OC1CCCCCCC1)C(=O)OCCc1nnn[nH]1` [Example 130, 1-(2-(1H-tetrazol-5-yl)ethyl) 4-cyclooctyl 2-methylenesuccinate]: the Emax with NRF2 (setting [4]) worked out at 164%. Besides, the EC50 with NRF2 (setting [5]) worked out at 29.1 µM. The IC50 in series [1] (setting [6]) amounted to 16 µM.

In the case of `C=C(CC(=O)O[C@H](C)CCCCCC)C(=O)OCCc1nnn[nH]1` [Example 135, (R)-1-(2-(1H-tetrazol-5-yl)ethyl) 4-octan-2-yl 2-methylenesuccinate], the Emax with NRF2 (setting [4]) stood at 157%. In addition, the EC50 in the series on NRF2 (setting [5]) came out at 11.1 µM. Moreover, the IC50 in series [1] (setting [6]) came out at 4.2 µM.

As for `C=C(CC(=O)OC1CCCCCCC1)C(=O)OC1(CC(=O)OCC)COC1` [Example 137, 4-cyclooctyl 1-(3-(2-ethoxy-2-oxoethyl)oxetan-3-yl) 2-methylenesuccinate], the Emax in the series on NRF2 (setting [4]) was 96%. The EC50 in the series on NRF2 (setting [5]) was found to be 4.2 µM. Besides, the IC50 in series [1] (setting [6]) turned out to be 5.7 µM.

As to `C=C(CC(=O)OC1CCCCCCC1)C(=O)OC(CC(=O)O)C(F)(F)F` (stereo not shown) [Example 144, 3-((4-(cyclooctyloxy)-2-methylene-4-oxobutanoyl)oxy)-4,4,4-trifluorobutanoic acid], the Emax with NRF2 (setting [4]) was found to be 176%. Moreover, in the series with NRF2 (setting [5]), the EC50 came out at 2.1 µM. In addition, the IC50 in series [1] (setting [6]) was 1.7 µM.

As for `C=C(CC(=O)OC1CCCCCC1)C(=O)OCC(=O)O` [Example 145, 2-(4-(cycloheptyloxy)-2-methylene-4-oxobutanoyloxy)acetic acid], the EC50 in the series on NRF2 (U2OS, 6 h) is > 100 µM. Besides, the Emax with NRF2 (U2OS) came to 7%. Moreover, in series [1] (PMA-differentiated THP-1 cells), the IC50 amounted to 19.3 µM.

On to `C=C(CC(=O)OC(CCCC)CCCC)C(=O)OCC(=O)O` [Example 175, 2-((2-methylene-4-(nonan-5-yloxy)-4-oxobutanoyl)oxy)acetic acid], for which the concentration at 0.083 h in series [2] (0.083 h, read-out: Parent compound concentrations following oral administration, Time 0.083 h) amounted to 39100 ng/mL. The concentration at 0.25 h in series [2] (0.25 h, read-out: Parent compound concentrations following oral administration, Time 0.25 h) was 19500 ng/mL; in series [3] (time 0.25 h) it was 6110 ng/mL. Further, the concentration at 0.5 h in series [2] (0.5 h, read-out: Parent compound concentrations following oral administration, Time 0.5 h) was determined as 18200 ng/mL; in series [3] (time 0.5 h) it was 1190 ng/mL. For the same compound, the concentration at 1 h in series [2] (1 h, read-out: Parent compound concentrations following oral administration, Time 1 h) turned out to be 5520 ng/mL; in series [3] (time 1 h), 181 ng/mL. Besides, the concentration at 2 h in series [2] (2 h, read-out: Parent compound concentrations following oral administration, Time 2 h) is 1410 ng/mL; in series [3] (time 2 h), 32 ng/mL. Further, the concentration at 4 h in series [2] (4 h, read-out: Parent compound concentrations following oral administration, Time 4 h) was 2000 ng/mL; in series [3] (time 4 h), < 4 ng/mL. For the same compound, the concentration at 6 h in series [2] (6 h, read-out: Parent compound concentrations following oral administration, Time 6 h) was 784 ng/mL; in series [3] (time 6 h), < 4 ng/mL. Moreover, the concentration at 8 h in series [2] (8 h, read-out: Parent compound concentrations following oral administration, Time 8 h) was 231 ng/mL; in series [3] (time 8 h), < 4 ng/mL. Further, in series [2] (24 h, read-out: Parent compound concentrations following oral administration, Time 24 h), the concentration at 24 h is < 4 ng/mL. Further, in series [1] (setting [6]), the IC50 stood at 7.6 µM. Further, the concentration at 0.05 h in series [3] (time 0.05 h) was 27500 ng/mL. The concentration at 0.133 h in series [3] (time 0.133 h) amounted to 11700 ng/mL.
